Results on five compounds are retold here after patent US4518711A, “Conformationally constrained cyclic enkephalin analogs with delta receptor specificity” (Gibson-Stephens Institute, priority 1983, dated 1985).

The IC50 is the concentration needed to halve the response being measured.

Assay [1] has as its target T1, delta type opiate receptors (mouse vas deferens preparation) (Mus musculus, UniProt P32300).
T1 construct: The mouse vas deferens was prepared following the method of Hughes et al; from tissue; host or cells: mouse vas deferens
Kind of assay: Mouse vas deferens (MVD) assay, inhibition of electrically stimulated contractions. Format: cell-based. Particulars: for IC50 (GPI)/IC50 (MVD): delta receptor selectivity, GPI versus MVD. The method, then:
These assays tested the degree of electrically stimulated contractions in the MVD and GPI tissues.
The mouse vas deferens was prepared following the method of Hughes et al. One pair of vasa deferentia was used in each experiment.

Assay [2] deals with T2, mu receptors (rat brain membrane preparations) (Rattus norvegicus, UniProt P33535).
T2 construct: Whole brains with cerebellum removed were homogenized in 100 volumes of Tris-HCl buffer; from tissue; host or cells: rat whole brain (cerebellum removed) membrane homogenate
T2 sequence (P33535 whole entry): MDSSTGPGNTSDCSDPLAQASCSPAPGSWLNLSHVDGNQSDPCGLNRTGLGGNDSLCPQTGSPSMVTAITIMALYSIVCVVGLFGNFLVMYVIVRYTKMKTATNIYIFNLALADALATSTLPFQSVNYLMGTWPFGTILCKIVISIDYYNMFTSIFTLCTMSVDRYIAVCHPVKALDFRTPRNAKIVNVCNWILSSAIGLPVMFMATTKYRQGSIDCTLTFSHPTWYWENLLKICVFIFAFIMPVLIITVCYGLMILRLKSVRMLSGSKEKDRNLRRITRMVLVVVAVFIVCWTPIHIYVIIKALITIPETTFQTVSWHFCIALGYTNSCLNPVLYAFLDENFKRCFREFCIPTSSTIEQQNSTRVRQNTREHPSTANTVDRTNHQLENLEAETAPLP
Kind of assay: Rat brain binding assay, displacement of [3H]naloxone. (Loss of bound radioactivity is the signal in a displacement assay; it reports binding, not function.)

The target in assay [3] is T3, delta receptors (rat brain membrane preparations) (Rattus norvegicus, UniProt P33533).
T3 construct: Whole brains with cerebellum removed were homogenized in 100 volumes of Tris-HCl buffer; from tissue; host or cells: rat whole brain (cerebellum removed) membrane homogenate
T3 sequence (P33533 whole entry): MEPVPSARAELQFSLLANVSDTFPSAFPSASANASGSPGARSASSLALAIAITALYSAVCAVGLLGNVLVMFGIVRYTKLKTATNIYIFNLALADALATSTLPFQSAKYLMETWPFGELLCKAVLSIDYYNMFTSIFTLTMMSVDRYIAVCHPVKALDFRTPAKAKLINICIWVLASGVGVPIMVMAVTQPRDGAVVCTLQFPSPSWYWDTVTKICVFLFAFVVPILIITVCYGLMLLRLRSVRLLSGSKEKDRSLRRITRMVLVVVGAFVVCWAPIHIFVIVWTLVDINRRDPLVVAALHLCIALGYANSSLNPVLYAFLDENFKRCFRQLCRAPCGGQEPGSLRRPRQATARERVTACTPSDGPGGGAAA
Kind of assay: Rat brain binding assay, displacement of [3H][D-Ala2, D-Leu5]enkephalin.

SMILES strings stand for the structures. Where two headings read alike, the source gives them in different places. Where a SMILES comes first, the peptide text is derived from it. Bridges are numbered along the chain shown (N, C = ends). [ ]: non-standard residue; d: D form. dPen = CC(C)(S)[C@@H](N)C(=O)O

T1 sequence (P32300 whole entry): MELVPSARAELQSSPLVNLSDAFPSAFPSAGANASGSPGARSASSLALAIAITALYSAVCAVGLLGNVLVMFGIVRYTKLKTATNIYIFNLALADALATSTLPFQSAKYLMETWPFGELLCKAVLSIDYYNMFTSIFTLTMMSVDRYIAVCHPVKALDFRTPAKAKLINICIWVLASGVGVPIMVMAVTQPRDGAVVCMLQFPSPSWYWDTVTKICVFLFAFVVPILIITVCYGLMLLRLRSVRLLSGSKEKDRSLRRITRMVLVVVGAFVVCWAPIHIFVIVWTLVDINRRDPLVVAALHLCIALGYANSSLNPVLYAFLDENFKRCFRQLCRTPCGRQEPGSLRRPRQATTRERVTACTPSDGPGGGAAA

Take `CSCC[C@H](NC(=O)[C@H](Cc1ccccc1)NC(=O)CNC(=O)[C@@H](C)NC(=O)[C@@H](N)Cc1ccc(O)cc1)C(N)=O` [[D-Ala^2, Met^5]Enkephalinamide, [D-Ala^2, Met^5]Enkephalinamide]: the IC50 in assay [1] stood at 3.75 nM.
For `C[C@@H](O)[C@H](NC(=O)[C@@H]1CSSC(C)(C)[C@@H](NC(=O)[C@@H](N)Cc2ccc(O)cc2)C(=O)NCC(=O)N[C@@H](Cc2ccccc2)C(=O)N1)C(=O)O` (H-Y[dPen]GFCT-OH; disulfide 2-5), the IC50 was 146 nM in assay [2], 0.6 nM in assay [1] and 5.2 nM in assay [3]. The “IC50 (GPI)/IC50 (MVD)” value in assay [1] is 380. Further, in assay [3] (delta receptor selectivity in rat brain binding), the “IC50 (NAL)/IC50 (DADLE)” value is on record as 28.2.
Take `Oc1ccc2c3c1O[C@H]1[C@@H](O)C=C[C@H]4[C@@H](C2)NCC[C@@]341` [Normorphine]: the “IC50 (GPI)/IC50 (MVD)” value in assay [1] came out at 0.17. In addition, in assay [1] (electrically stimulated contractions, mouse vas deferens, read-out: IC50 (nM) MVD), the IC50 worked out at 540 nM.
Regarding `CC(C)C[C@H](NC(=O)[C@H](Cc1ccccc1)NC(=O)CNC(=O)[C@@H](CO)NC(=O)[C@@H](N)Cc1ccc(O)cc1)C(=O)N[C@H](C(=O)O)[C@@H](C)O` [[D-Ser^2, Leu^5, Thr^6]Enkephalin, [D-Ser^2, Leu^5, Thr^6]enkephalin], the IC50 in assay [2] came out at 88 ± 6 nM; in assay [3], 5.73 nM.
The like results for `CC(C)C[C@H](NC(=O)[C@H](Cc1ccccc1)NC(=O)CNC(=O)[C@H](NC(=O)[C@@H](N)Cc1ccc(O)cc1)[C@H](C)O)C(=O)N[C@H](C(=O)O)[C@@H](C)O` [[D-Thr^2, Leu^5, Thr^6]Enkephalin, [D-Thr^2, Leu^5, Thr^6]enkephalin] were, in that order, 36.3 nM and 6.4 nM.
